Test results published in US12715850B2, “Low toxicity NMP substitutes and uses thereof” (Advancion Corporation, priority 2020, dated 2026).

How the values were obtained:
[1] = following inhalation, oral and dermal exposure in humans and animals; cited from earlier work
experimental animals = details: high levels over short time by inhalation, dermal exposure, and ingestion; cited from earlier work
animals [2] = details: animals ingested NMP repeatedly at lower levels; cited from earlier work
animals [3] = details: long-term oral exposures in animals; cited from earlier work
[4] = oral reproduction toxicity study; at doses lower than those that caused maternal toxicity; cited from earlier work
[5] = Solubility of the product in water and mineral oil; format: physicochemical
Procedure: The resulting nitro amidef was added to a 2 L Parr reactor along with 300 g methanol and 30 g of damp Raney® nickel. The reactor was purged with hydrogen. The reagents were stirred and reacted at 65° C. and 750 psig hydrogen. In a separate vessel, a blend of 400 g (2.13 mol) of nitroamide (prepared in previous example) and 431 g (5.31 mol) of formaldehyde (37% aqueous, Fisher Scientific) was prepared. The nitroamide/formaldehyde mixture was added to the reactor under stirring while maintaining 65° C. Followed by flushing with 50 g (0.62 mol) of 37% aqueous formaldehyde. The reactor contents were held at 65° C. for 2 hours followed by cooling to 25° C. The reactor was vented and the catalyst filtered off the product. After rinsing the catalyst with methanol (2×20 mL), the filtrate was concentrate under vacuum. The product was isolated and purified using vacuum distillation to provide a pale yellow liquid recovered in 75% yield from DMAA having purity >99% by GC-FID. The boiling point was determined to be 170° C. at 40 mmHg, 145° C. at 15 mmHg, and 137° C. at 10 mmHg. ^1H NMR (400 MHz, D2O): d=2.95 (s, 3H), 2.88 (s, 3H), 2.24 (m, 2H), 2.05 (s, 6H), 1.54 (m, 2H), 0.91 (s, 6H).

Row | Compound | absorption [1] | toxicity (experimental animals) | adverse effects (animals [2]) | effects of long-term oral exposures (animals [3]) | developmental toxicity [4] | solubility in mineral oil ([5]; mineral oil) | solubility in water ([5]; water)
1 | CN1CCCC1=O [NMP, N-methyl-2-pyrrolidone] | well absorbed | low toxicity | changes in body weight, liver weight, neurotoxicity, and thymus atrophy | increased incidence of large kidneys, kidneys diagnosed with chronic problems, fluid in the pleural cavity and small testes | decrease in fetal weight and malformations |  | 
2 | CN(C)C(=O)CCC(C)(C)N(C)C [Example 3, 4-(dimethylamino)-N,N-4-trimethylpentamide] |  |  |  |  |  | soluble | soluble
